Experimental data published in patent publication US20090252834A1, “Compositions comprising glucose anti-metabolites” (priority 2004, published 2009).

Legend:
[1] = system: older Labrador Retrievers; assay: ADL-Jump (jumping over hurdles) of older dogs; assay type: in vivo, Labrador Retriever dogs; details: 2 mg/kg, across all four quarters
Protocol: (§1) A total of 39 older Labrador Retrievers are fed a nutritionally-balanced composition providing mannoheptulose at levels of 0 or 2 mg/kg of body weight of the dog. Average age of the dogs (12 neutered males, 27 spayed females) at the start of a 4-year study is 6.7 years with a range of 5.1 to 8.2 years of age for the youngest and oldest dog within the cohort, respectively. The 0 mg/kg composition is fed as a nutritionally-balanced control composition (Eukanuba Senior Maintenance Formula) and it contains no mannoheptulose, avocado extract or avocado meal. The 2 mg/kg composition is the nutritionally-balanced control composition formulated with avocado extract to provide mannoheptulose at a dose of 2 mg/kg body weight of the dog. The nutritionally-balanced composition containing 0 mg/kg mannoheptulose is referred to as Diet 1 within this Example. The nutritionally-balanced composition containing 2 mg/kg mannoheptulose is referred to as Diet 2 within this Example. […]
(§2) Shoulder height of each individual dog is measured using a tape measure and recorded. […]
(§3) The ADL-Table activity requires the dog to jump on to and down from the platform of four tables of graduated heights, starting with the lowest table height first. […] For both activities, dogs are scored for the number of attempts at each graduated height and the successful completion of each height. […]

[2] = system: older Labrador Retrievers; assay: ADL-Table (jumping onto table platforms) of older dogs; assay type: in vivo, Labrador Retriever dogs; details: 2 mg/kg, across all four quarters
Protocol: as §1, §2, §3

## O=C(CO)[C@@H](O)[C@@H](O)[C@H](O)[C@H](O)CO [mannoheptulose]
[1]
  percentage of older dogs successfully jumping heights vs composition devoid of mannoheptulose: a greater percentage of older dogs are able to successfully jump all heights
[2]
  percentage of older dogs successfully jumping onto platforms vs composition devoid of mannoheptulose: a greater percentage of older dogs can successfully jump onto platforms that are 70, 80, 90 and 100% of their shoulder height
